Data: patent US20060205642A1, “Oral methods of treatment using proANF peptides” (priority 2005, published 2006)

Legend:
[1] = system: renal medullary Na+-K+-ATPase; experiment: Inhibition of renal medullary Na+-K+-ATPase activity (FIG. 9); type: biochemical; conditions: 10^-11 M, n=6, ANOVA
Description: FIG. 9. Inhibition of renal medullary Na+-K+-ATPase activity by proANF 79-98 (kaliuretic peptide), proANF 1-30 (long acting natriuretic peptide), proANF 31-67 (vessel dilator), and angiotensin II at their […] concentrations.

[2] = Rat clearance model (diuresis and salt excretion); type: in vivo, Munich-Wistar rats; conditions: for FENa, fractional excretion of sodium / UNa, urinary sodium / UNaV, urinary sodium excretion rate / V, urine flow rate: means ± SE
Procedure: The same three peptides and ANF from Example I are tested using the rat clearance model. Six control rats and six experimental Munich-Wistar rats, each weighing 150-200 grams, are used for each peptide, with catheters being placed in both jugular veins and in the femoral artery. The ureters are cannulated for simultaneous urine collections with femoral artery blood collections.
After inserting the catheters, a stabilization of one hour is allowed. A 10 μg/kg bolus of each of the respective human sequences of the peptides is given via the jugular vein to six experimental rats followed by a sustaining infusion of 0.1 μg/kg/min for 60 minutes. Blood and urine samples are collected at 20 minute intervals during this 60 minute infusion. In both the control and experimental animals, hematocrits and plasma sodium values remained at the same levels pre- and post-infusion while blood pressure decreased with each of these peptides (see Attachment B).

[3] = system: prostaglandin E2 (PGE2) synthesis; experiment: Prostaglandin E2 synthesis (FIG. 8); type: biochemical; conditions: n=6, ANOVA and Duncan's MRT
[4] = A, control period (before peptide)
[5] = B, first 60-minute experiment period, 10 μg/kg bolus then 0.1 μg/kg/min
[6] = C, second 60-minute experimental period

H-EVVPPQVLSEPNEEAGAALSPLPEVPPWTGEVSPAQR-OH [proANF 31-67]
inhibition of renal medullary Na+-K+-ATPase activity [1]: significant at P<0.01 | FENa, fractional excretion of sodium [2, 4]: 0.057 ± 0.012% | UNa, urinary sodium [2, 4]: 21.02 ± 4.41 meq/1 | UNaV, urinary sodium excretion rate [2, 4]: 144.08 ± 56.75 μeq · min^−1 · g kidney wt^−1 | V, urine flow rate [2, 4]: 2.63 ± 0.24 μl · min^−1 · g kidney wt^−1 | V, urine flow rate ([2]; B, first 60-minute experiment period, 10 μg/kg bolus then 0.1 μg/kg/min via jugular vein): 9.36 ± 3.14 μl · min^−1 · g kidney wt^−1 | FENa, fractional excretion of sodium [2, 5]: 0.457 ± 0.156% | UNa, urinary sodium [2, 5]: 111.73 ± 21.37 meq/1 | UNaV, urinary sodium excretion rate [2, 5]: 1,057 ± 371.69 μeq · min^−1 · g kidney wt^−1 | V, urine flow rate ([2]; C, second 60-minute experimental period, 10 μg/kg bolus then 0.1 μg/kg/min): 8.84 ± 1.86 μl · min^−1 · g kidney wt^−1 | FENa, fractional excretion of sodium [2, 6]: 0.444 ± 0.155% | UNa, urinary sodium [2, 6]: 129.33 ± 24.73 meq/1 | UNaV, urinary sodium excretion rate [2, 6]: 1,077.63 ± 306.10 μeq · min^−1 · g kidney wt^−1 | potassium excretion ([2]; rat clearance model): does not cause increased potassium excretion | prostaglandin E2 (PGE2) synthesis [3]: increase prostaglandin E2 (PGE2) synthesis
